Data from ChEMBL document CHEMBL1201862, “PubChem BioAssay data set” (2004).
Calls of active or inactive are those of the source.

Key:
Type in all cases: functional
[1] = molecular target: Protein kinase C theta type (Homo sapiens, UniProt Q04759); assay: Navigating the Kinome. Panel member name: PRKCQ
[2] = molecular target: Dual specificity mitogen-activated protein kinase kinase 1 (Homo sapiens, UniProt Q02750); assay: Navigating the Kinome. Panel member name: MAP2K1
[3] = molecular target: 5'-AMP-activated protein kinase catalytic subunit alpha-1 (Homo sapiens, UniProt Q13131)
5'-AMP-activated protein kinase catalytic subunit alpha-1, sequence (Q13131 whole entry): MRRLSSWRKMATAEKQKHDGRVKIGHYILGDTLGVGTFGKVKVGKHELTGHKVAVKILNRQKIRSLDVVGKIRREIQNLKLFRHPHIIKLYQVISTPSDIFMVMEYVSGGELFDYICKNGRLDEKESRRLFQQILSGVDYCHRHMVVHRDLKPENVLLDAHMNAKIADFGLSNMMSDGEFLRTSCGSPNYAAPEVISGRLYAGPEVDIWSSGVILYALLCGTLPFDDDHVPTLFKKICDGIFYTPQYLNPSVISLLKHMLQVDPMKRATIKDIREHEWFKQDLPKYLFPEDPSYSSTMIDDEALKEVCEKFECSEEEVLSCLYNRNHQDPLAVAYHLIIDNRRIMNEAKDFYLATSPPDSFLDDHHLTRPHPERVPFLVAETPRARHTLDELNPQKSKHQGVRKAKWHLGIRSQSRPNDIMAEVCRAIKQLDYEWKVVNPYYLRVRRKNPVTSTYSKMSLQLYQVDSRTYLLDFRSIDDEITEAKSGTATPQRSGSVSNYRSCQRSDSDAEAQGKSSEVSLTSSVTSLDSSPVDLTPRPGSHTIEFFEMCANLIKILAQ

[4] = molecular target: Fibroblast growth factor receptor 1 (Homo sapiens, UniProt P11362)
[5] = molecular target: Hepatocyte growth factor receptor (Homo sapiens, UniProt P08581);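 further: kinase panel profiling across the kinome, with MET as the panel member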
[6] = molecular target: T1, Serine/threonine-protein kinase Chk1 (Homo sapiens, UniProt O14757);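 further: measured as one member of a kinome-wide kinase profiling panel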
T1 sequence (O14757 whole entry): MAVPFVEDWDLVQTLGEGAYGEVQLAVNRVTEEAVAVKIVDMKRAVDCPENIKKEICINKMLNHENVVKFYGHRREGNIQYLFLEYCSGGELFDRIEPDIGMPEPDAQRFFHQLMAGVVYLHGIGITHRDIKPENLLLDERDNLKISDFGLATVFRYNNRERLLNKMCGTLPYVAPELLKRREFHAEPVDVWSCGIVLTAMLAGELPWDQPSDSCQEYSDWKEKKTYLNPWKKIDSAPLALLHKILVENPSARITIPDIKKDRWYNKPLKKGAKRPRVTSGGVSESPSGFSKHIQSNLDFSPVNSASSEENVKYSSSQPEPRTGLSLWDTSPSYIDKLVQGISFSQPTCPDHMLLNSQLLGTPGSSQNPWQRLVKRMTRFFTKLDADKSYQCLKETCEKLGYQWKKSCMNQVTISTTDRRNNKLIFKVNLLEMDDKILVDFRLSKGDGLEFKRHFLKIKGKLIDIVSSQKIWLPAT

[7] = molecular target: Tyrosine-protein kinase ABL1 (Homo sapiens, UniProt P00519)
Tyrosine-protein kinase ABL1, sequence (P00519 whole entry): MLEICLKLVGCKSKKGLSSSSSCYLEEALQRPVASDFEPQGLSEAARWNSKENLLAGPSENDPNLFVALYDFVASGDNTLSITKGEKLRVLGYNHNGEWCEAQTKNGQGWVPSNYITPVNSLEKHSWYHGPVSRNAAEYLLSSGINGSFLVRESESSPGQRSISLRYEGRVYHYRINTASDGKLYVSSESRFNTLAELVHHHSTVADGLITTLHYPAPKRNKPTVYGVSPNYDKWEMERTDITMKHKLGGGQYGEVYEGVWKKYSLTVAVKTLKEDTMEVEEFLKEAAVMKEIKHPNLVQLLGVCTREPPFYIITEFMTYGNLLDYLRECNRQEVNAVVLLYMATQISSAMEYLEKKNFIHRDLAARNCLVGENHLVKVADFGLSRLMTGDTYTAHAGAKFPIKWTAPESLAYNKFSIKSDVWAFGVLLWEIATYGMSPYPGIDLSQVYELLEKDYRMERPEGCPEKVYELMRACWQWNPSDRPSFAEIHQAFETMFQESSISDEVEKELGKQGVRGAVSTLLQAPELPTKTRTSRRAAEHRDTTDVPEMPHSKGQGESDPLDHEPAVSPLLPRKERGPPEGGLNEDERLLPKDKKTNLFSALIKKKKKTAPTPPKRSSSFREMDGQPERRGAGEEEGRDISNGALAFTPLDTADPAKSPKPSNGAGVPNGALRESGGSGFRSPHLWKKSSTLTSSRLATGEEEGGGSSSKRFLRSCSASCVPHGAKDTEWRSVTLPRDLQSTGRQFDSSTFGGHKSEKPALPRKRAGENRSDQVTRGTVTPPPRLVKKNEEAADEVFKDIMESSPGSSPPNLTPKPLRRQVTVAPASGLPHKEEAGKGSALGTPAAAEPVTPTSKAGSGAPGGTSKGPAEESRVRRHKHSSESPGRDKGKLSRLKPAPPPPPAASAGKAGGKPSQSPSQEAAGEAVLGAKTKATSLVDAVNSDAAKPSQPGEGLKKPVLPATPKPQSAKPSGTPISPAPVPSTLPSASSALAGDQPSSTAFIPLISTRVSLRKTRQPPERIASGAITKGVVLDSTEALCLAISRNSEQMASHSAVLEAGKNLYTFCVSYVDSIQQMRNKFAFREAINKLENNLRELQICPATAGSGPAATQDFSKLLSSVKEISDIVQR

[8] = molecular target: Platelet-derived growth factor receptor alpha (Homo sapiens, UniProt P16234); assay: Navigating the Kinome. Panel member name: PDGFRA
Platelet-derived growth factor receptor alpha, sequence (P16234 whole entry): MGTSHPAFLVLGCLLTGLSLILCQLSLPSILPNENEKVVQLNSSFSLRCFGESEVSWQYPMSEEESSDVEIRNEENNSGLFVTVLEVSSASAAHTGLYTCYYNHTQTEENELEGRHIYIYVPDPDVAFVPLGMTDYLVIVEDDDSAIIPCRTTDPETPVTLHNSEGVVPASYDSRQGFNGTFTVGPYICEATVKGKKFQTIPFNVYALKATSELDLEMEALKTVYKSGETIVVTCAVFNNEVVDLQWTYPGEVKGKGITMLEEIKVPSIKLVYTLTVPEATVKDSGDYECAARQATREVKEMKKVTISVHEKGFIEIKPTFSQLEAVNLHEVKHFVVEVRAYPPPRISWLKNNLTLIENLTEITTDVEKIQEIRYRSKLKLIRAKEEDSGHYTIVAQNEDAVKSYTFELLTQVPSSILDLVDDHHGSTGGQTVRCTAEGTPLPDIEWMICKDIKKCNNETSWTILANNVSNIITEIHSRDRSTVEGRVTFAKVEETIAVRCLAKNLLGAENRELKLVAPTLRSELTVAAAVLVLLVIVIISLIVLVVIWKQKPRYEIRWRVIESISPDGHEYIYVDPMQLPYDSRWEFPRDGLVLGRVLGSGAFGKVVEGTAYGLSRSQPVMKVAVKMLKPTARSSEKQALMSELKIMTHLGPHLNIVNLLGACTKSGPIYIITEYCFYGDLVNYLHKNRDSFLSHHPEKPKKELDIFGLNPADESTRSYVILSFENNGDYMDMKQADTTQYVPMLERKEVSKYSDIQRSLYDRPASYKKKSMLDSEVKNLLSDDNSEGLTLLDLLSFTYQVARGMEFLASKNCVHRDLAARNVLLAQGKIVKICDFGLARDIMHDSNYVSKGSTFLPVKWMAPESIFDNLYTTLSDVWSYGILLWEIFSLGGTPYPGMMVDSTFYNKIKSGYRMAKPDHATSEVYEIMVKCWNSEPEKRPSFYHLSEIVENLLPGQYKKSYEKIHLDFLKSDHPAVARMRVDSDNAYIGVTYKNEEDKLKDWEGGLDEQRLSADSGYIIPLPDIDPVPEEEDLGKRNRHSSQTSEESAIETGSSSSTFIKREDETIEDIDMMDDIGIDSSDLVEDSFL

[9] = molecular target: Dual specificity protein kinase CLK4 (Homo sapiens, UniProt Q9HAZ1)
Dual specificity protein kinase CLK4, sequence (Q9HAZ1 whole entry): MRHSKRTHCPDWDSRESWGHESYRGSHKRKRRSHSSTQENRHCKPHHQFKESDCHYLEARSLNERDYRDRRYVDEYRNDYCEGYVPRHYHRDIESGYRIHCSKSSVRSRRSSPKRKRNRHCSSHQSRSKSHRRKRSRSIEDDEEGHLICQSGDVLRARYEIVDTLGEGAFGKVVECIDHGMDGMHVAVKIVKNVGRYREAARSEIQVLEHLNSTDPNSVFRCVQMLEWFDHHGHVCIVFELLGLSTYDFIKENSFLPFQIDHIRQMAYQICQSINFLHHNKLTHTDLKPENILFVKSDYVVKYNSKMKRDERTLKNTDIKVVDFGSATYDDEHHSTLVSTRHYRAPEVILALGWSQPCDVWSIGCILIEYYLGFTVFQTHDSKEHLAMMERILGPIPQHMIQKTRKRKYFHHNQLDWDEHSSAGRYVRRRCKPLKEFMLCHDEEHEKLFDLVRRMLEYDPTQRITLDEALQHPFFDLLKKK

[10] = molecular target: T2, Inhibitor of nuclear factor kappa-B kinase subunit epsilon (Homo sapiens, UniProt Q14164); assay: Navigating the Kinome. Panel member name: IKBKE
T2 sequence (Q14164 whole entry): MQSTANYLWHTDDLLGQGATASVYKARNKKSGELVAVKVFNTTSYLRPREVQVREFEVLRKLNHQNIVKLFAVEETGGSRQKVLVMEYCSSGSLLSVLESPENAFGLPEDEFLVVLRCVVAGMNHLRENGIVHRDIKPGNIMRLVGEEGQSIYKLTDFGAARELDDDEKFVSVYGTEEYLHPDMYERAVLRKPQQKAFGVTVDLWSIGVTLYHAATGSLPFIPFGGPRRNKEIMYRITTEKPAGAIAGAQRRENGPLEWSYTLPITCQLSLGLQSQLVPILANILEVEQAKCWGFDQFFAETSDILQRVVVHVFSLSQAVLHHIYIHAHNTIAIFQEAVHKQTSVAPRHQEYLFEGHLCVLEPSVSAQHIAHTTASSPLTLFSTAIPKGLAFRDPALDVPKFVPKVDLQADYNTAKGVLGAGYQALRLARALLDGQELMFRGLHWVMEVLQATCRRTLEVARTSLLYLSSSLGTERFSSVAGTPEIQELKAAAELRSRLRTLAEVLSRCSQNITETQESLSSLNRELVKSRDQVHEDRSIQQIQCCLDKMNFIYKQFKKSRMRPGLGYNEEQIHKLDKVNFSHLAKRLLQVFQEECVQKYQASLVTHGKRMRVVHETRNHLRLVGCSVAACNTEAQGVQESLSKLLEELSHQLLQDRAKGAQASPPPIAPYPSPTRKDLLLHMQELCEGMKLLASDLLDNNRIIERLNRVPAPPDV

[11] = molecular target: Leukocyte tyrosine kinase receptor (Homo sapiens, UniProt P29376); assay: Navigating the Kinome. Panel member name: LTK
Leukocyte tyrosine kinase receptor, sequence (P29376 whole entry): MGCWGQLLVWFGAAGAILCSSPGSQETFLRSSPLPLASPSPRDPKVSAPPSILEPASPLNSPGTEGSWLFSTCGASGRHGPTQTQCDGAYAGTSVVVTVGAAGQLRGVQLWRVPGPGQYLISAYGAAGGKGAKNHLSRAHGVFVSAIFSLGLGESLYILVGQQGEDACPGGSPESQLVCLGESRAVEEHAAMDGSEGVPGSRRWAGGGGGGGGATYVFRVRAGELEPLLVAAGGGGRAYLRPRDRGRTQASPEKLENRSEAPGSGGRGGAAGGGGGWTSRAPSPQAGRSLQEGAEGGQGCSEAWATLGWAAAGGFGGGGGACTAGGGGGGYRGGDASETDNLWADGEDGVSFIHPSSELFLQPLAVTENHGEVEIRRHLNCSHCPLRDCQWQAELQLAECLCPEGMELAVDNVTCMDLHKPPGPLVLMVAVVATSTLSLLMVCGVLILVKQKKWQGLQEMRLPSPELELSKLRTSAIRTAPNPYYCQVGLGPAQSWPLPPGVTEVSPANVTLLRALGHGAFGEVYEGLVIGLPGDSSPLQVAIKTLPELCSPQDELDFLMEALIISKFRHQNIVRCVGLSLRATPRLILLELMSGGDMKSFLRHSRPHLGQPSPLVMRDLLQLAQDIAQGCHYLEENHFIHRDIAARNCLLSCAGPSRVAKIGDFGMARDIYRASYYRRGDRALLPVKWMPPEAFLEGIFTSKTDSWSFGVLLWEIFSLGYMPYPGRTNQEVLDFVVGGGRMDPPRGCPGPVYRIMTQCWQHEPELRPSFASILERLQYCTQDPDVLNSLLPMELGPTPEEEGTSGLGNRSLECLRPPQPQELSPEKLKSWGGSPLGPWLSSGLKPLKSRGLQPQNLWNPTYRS

[12] = molecular target: T3, Apoptotic protease-activating factor 1 (Homo sapiens, UniProt O14727)
T3 sequence (O14727 whole entry): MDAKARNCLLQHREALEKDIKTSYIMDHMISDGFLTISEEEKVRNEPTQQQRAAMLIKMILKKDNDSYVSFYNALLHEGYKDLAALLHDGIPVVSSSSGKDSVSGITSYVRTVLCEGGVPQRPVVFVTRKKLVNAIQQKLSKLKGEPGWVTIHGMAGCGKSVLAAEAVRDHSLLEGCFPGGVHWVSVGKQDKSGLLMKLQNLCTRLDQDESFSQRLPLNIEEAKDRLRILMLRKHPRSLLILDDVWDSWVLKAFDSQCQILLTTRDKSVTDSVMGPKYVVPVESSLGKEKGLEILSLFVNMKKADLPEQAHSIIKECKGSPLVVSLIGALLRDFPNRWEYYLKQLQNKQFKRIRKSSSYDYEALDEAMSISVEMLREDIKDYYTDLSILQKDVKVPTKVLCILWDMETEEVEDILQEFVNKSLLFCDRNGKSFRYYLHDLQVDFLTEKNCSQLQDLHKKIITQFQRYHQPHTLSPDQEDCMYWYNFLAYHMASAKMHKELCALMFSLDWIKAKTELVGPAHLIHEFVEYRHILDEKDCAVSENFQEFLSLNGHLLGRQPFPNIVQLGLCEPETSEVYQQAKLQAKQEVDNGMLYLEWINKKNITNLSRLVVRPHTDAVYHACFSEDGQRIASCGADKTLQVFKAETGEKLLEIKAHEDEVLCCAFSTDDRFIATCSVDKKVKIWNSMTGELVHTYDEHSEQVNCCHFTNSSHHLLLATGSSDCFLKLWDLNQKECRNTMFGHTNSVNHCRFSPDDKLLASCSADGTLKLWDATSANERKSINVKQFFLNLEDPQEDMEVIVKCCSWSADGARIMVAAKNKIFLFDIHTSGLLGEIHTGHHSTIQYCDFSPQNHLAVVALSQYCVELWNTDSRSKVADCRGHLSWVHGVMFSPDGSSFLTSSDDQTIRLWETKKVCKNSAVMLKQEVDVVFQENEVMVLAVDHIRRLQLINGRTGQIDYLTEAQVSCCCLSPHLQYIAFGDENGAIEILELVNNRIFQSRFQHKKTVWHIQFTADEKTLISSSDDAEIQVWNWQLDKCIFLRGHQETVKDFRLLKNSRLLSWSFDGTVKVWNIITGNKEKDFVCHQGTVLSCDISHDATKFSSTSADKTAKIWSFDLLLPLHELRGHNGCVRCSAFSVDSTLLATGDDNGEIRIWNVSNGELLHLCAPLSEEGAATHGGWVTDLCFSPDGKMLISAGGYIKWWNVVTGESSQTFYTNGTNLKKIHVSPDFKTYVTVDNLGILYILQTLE

Protein kinase C theta type, sequence (Q04759 whole entry): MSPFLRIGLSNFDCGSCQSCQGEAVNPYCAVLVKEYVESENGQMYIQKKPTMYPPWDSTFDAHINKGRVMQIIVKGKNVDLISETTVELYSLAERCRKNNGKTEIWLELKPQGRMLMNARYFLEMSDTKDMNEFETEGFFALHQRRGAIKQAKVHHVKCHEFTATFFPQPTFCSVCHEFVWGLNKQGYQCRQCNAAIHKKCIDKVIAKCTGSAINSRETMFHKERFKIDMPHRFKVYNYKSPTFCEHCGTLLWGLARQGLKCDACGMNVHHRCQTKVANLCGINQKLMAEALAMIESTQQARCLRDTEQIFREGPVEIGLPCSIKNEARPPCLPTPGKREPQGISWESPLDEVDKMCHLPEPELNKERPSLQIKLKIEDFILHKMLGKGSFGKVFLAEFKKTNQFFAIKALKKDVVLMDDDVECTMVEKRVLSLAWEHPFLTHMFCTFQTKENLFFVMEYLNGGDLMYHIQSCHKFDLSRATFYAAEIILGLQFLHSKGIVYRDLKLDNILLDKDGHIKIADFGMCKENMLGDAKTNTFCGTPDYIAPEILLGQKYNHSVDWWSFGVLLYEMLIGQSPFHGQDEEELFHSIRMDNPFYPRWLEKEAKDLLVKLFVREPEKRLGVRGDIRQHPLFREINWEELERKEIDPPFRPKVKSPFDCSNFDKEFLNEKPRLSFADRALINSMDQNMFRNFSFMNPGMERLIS

Ki [1] | Ki [2] | Ki [3] | Ki [4] | Ki [5] | Ki [6] | Ki [7] | Ki [8] | Ki [9] | Ki [10] | Ki [11] | Compound | IC50 [12]
0.00398 µM (active) | 0.316 µM (active) | 0.00316 µM (active) | 0.126 µM (active) | 0.316 µM (active) | 0.251 µM (active) | 0.0631 µM (active) | 0.126 µM (active) | 0.000316 µM (active) | 0.02 µM (active) | 0.126 µM (active) | NC(COc1cncc(-c2ccc3c(c2)C(=Cc2ccc[nH]2)C(=O)N3)c1)Cc1ccccc1 (stereo not drawn) | –
– | – | – | – | – | – | – | – | – | – | – | Oc1nc(Nc2ccc(F)cc2)cc2ccccc12 | 3.76 µM (active)
– | – | – | – | – | – | – | – | – | – | – | COc1cc2cc(NC(C)=O)cc(NCc3ccccc3)c2cc1OC | 20.7 µM (active)
63.1 µM (active) | 79.4 µM (active) | 50.1 µM (active) | 50.1 µM (active) | 25.1 µM (active) | 3.98 µM (active) | 79.4 µM (active) | 39.8 µM (active) | 6.31 µM (active) | 100 µM (active) | 15.8 µM (active) | O=C1Cc2cc(-c3ccccc3)cnc2N1 | –
0.316 µM (active) | 1.26 µM (active) | 0.158 µM (active) | 1.26 µM (active) | 2.51 µM (active) | 0.02 µM (active) | 0.0501 µM (active) | 0.501 µM (active) | 1.26 µM (active) | > 3.16 µM (inactive) | 0.00398 µM (active) | O=C1Nc2cc(-c3ccc(O)cc3)ccc2C1=Cc1ccc[nH]1 | –
– | – | – | – | – | – | – | – | – | – | – | CN(C)c1cc(N/N=C\c2ccccc2)nc(N(C)C)n1 | 1.1 µM (active)
– | – | – | – | – | – | – | – | – | – | – | CCN(CC)CCOc1ccc2c(c1)C(=NNC(=O)c1ccccn1)c1cc(OCCN(CC)CC)ccc1-2 | 10.2 µM (active)
– | – | – | – | – | – | – | – | – | – | – | O=C(NC1=C(Nc2ccc(F)cc2)C(=O)c2ccccc2C1=O)c1ccc(Cl)cc1 | 16.2 µM (active)
